In ChEMBL document CHEMBL1157727, “Novel small molecule bradykinin B1 receptor antagonists. Part 1: benzamides and semicarbazides” (Bioorg Med Chem Lett, 2010):
Converted amounts (≈) assume the structure as drawn.

Assays:
in vitro [1] = conditions: human, microsomes
in vitro [2] = conditions: rat, microsomes
physchem = conditions: buffer
in vivo [3] = conditions: Wistar, rat, 1 mg/kg
in vivo [4] = conditions: Wistar, rat, iv, 1 mg/kg
in vivo [5] = conditions: Wistar, rat, po, 1 mg/kg

Question: Which remaining at 1 h (in vitro [1]) does the source give for C[C@@H]1CC[C@H](C)N1C(=O)c1ccc([C@@H](C)NC(=O)C2(NC(=O)c3cc(F)cc(C(F)(F)F)c3)CC2)c(F)c1 here?
Answer: 9%

Question: What about the remaining at 1 h (in vitro [2]) of the same molecule?
Answer: 45%

Question: And the solubility (physchem)?
Answer: 42 µM (≈ 22.6 µg/mL)

Question: Which half-life (in vivo [3]) does the source give for CCN(NC(=O)C(F)(F)F)C(=O)N[C@H](C)c1ncc(-c2cc(Cl)cc(Cl)c2OCC(F)F)cc1F here?
Answer: 2.25 h

Question: What about the clearance (in vivo [4]) of the same molecule?
Answer: 7 mL/min/kg

Question: What about the bioavailability (in vivo [5]) of the same molecule?
Answer: > 44%
